# According to US10059701B2 (Merck Patent GmbH, priority 2015, dated 2018):
# Columns and labels:
# IRAK1 = target: T1, IRAK1 (Homo sapiens, UniProt P51617); test: IRAK1 enzymatic assay (ADP-Glo luminescence); type: biochemical; details: purified human recombinant His-TEV-IRAK1 (194-712)
# T1 construct: His-TEV-IRAK1 (194-712); His (N); TEV cleavage site (N)
# Method: IRAK1 is a human purified recombinant enzyme (His-TEV-IRAK1 (194-712))
# In this assay, IRAK1 hydrolyses ATP and autophosphorylates. Measurement of IRAK-1 inhibition is performed in 384-well format based on luminescence assay (ADP-Glo™ Kinase Assay from Promega). Purified human recombinant IRAK1 (0.3 μg/ml) and serial diluted compounds in DMSO (range of concentration from 10 μM to 0.5 nM) or controls (1% DMSO) are incubated for 15 minutes at RT in assay buffer containing 50 mM Hepes pH 7.0, Fatty acid-free BSA 0.1%, Dithiothreitol (DTT) 2 mM, MgCl2 10 mM, EGTA 0.5 mM, Triton X-100 0.01%. The kinase reaction is then initiated by the addition of ATP […] After 2 hours of incubation at RT, the reaction is stopped and the unconsumed ATP depleted by the addition of ADP-Glo™ Reagent according to supplier instructions. After 40 minutes of incubation at RT, the Kinase Detection Reagent is then added to the assay plate according to supplier instructions. After 20 minutes of incubation at RT, the luminescence signal is measured with a luminometer (PerkinElmer Envision or equivalent reader).
# IRAK4 = target: T2, IRAK4 (Homo sapiens, UniProt Q9NWZ3); test: IRAK4 enzymatic assay (ADP-Glo luminescence); type: biochemical; details: purified human recombinant His-TEV-IRAK4 (1-460), ATP 2 μM
# T2 construct: His-TEV-IRAK4 (1-460); His (N); TEV cleavage site (N)
# T2 sequence (Q9NWZ3 1-460): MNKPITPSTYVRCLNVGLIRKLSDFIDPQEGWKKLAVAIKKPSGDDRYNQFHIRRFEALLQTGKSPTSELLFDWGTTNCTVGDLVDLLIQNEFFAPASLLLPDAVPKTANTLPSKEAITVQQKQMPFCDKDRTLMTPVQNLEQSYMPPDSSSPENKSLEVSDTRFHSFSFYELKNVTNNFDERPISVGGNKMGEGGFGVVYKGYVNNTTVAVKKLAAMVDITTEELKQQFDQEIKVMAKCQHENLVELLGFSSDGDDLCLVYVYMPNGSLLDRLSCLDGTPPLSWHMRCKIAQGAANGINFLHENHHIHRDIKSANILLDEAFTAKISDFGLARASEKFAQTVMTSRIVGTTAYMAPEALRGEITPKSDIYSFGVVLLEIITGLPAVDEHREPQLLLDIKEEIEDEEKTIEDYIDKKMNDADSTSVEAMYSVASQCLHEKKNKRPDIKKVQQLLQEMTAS
# Method: IRAK4 is a human purified recombinant enzyme (His-TEV-IRAK4 (1-460)).
# In this assay, IRAK4 hydrolyses ATP, autophosphorylates and phosphorylates a Serine/Threonine generic peptidic substrate (STK: 61ST1BLC from CisBio International). Measurement of IRAK-4 inhibition is performed in 384-well format based on a luminescence assay (ADP-Glo™ Kinase Assay from Promega). Purified human recombinant IRAK4 (0.3 μg/ml) and serial diluted compounds in DMSO (range of concentration from 10 μM to 0.5 nM) or controls (1% DMSO) are incubated for 15 minutes at RT in assay buffer containing 50 mM Hepes pH 7.0, Fatty acid-free BSA 0.1%, Dithiothreitol (DTT) 2 mM, MgCl2 10 mM, EGTA 0.5 mM, Triton X-100 0.01%, MnCl2 5 mM. The kinase reaction is then initiated by the addition of ATP (2 μM) and the peptidic substrate STK1-biotin peptide (300 nM). After 2 hours of incubation at RT, the reaction is stopped and the unconsumed ATP depleted by the addition of ADP-Glo™ Reagent according to supplier instructions. After 40 minutes of incubation at RT, the Kinase Detection Reagent is then added to the assay plate according to supplier instructions. After 20 minutes of incubation at RT, the luminescence signal is measured with a plate-reading luminometer (PerkinElmer Envision or equivalent reader).
# T1 sequence (P51617 194-712): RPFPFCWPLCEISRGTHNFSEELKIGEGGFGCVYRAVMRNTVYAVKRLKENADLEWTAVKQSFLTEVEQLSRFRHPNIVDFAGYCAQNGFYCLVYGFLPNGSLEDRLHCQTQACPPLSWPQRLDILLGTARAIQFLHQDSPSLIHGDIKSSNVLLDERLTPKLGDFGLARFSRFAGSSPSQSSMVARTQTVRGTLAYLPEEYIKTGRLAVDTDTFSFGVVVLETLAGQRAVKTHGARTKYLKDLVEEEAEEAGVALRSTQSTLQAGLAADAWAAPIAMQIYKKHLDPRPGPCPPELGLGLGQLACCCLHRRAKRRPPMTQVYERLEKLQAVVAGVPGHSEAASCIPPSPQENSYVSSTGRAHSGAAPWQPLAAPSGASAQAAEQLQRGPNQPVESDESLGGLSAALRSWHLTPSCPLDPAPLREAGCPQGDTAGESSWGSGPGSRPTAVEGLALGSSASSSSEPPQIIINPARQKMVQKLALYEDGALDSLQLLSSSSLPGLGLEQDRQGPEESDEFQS
IC50 (IRAK1),IC50 (IRAK4),SMILES
> 1 µM,0.1 to 1 µM,"O=C(/N=c1\[nH]c2cc(N3CCOCC3=O)ccc2n1[C@H]1CCCC[C@H]1CO)c1cccc(C(F)(F)F)c1 (racemic) [Compound 116, rac-(E)-N-(1-((1S,2R)-2-(hydroxymethyl)cyclohexyl)-5-(3-oxomorpholino)-1H-benzo[d]imidazol-2(3H)-ylidene)-3-(trifluoromethyl)benzamide]"
0.1 to 1 µM,0.1 to 1 µM,"O=C(/N=c1\[nH]c2cc(N3CCOCC3=O)ccc2n1[C@H]1CCCC[C@H]1CO)c1cccc(C(F)F)c1 (racemic) [Compound 117, rac-(E)-3-(difluoromethyl)-N-(1-((1S,2R)-2-(hydroxymethyl)cyclohexyl)-5-(3-oxomorpholino)-1H-benzo[d]imidazol-2(3H)-ylidene)benzamide]"
0.1 to 1 µM,≤ 0.1 µM,"O=C(/N=c1\[nH]c2cc(N3CCOCC3=O)ccc2n1[C@H]1CCCC[C@@H]1CO)c1cccc(C(F)(F)F)c1 (racemic) [Compound 118, rac-(E)-N-(1-((1S,2S)-2-(hydroxymethyl)cyclohexyl)-5-(3-oxomorpholino)-1H-benzo[d]imidazol-2(3H)-ylidene)-3-(trifluoromethyl)benzamide]"
0.1 to 1 µM,≤ 0.1 µM,"O=C(/N=c1\[nH]c2cc(N3CCOCC3=O)ccc2n1[C@H]1CCCC[C@@H]1CO)c1cccc(C(F)F)c1 (racemic) [Compound 119, rac-(E)-3-(difluoromethyl)-N-(1-((1S,2S)-2-(hydroxymethyl)cyclohexyl)-5-(3-oxomorpholino)-1H-benzo[d]imidazol-2(3H)-ylidene)benzamide]"
> 1 µM,0.1 to 1 µM,"CCC(CCO)n1/c(=N/C(=O)c2cccc(C(F)(F)F)c2)[nH]c2cc(N3CCOCC3=O)ccc21 (racemic) [Compound 124, rac-(E)-N-(1-(1-hydroxypentan-3-yl)-5-(3-oxomorpholino)-1H-benzo[d]imidazol-2(3H)-ylidene)-3-(trifluoromethyl)benzamide]"
> 1 µM,≤ 0.1 µM,"CCC(CCO)n1/c(=N/C(=O)c2cccc(C(F)F)c2)[nH]c2cc(N3CCOCC3=O)ccc21 (racemic) [Compound 125, rac-(E)-3-(difluoromethyl)-N-(1-(1-hydroxypentan-3-yl)-5-(3-oxomorpholino)-1H-benzo[d]imidazol-2(3H)-ylidene)benzamide]"
> 1 µM,≤ 0.1 µM,"O=C(/N=c1\[nH]c2cc(N3CCCOC3=O)ccc2n1[C@@H]1C[C@H]1CO)c1cccc(C(F)(F)F)c1 (racemic) [Compound 144, rac-(E)-N-(1-((1R,2R)-2-(hydroxymethyl)cyclopropyl)-5-(2-oxo-1,3-oxazinan-3-yl)-1H-benzo[d]imidazol-2(3H)-ylidene)-3-(trifluoromethyl)benzamide]"
0.1 to 1 µM,≤ 0.1 µM,"O=C(/N=c1\[nH]c2cc(N3CCCNC3=O)ccc2n1CCCO)c1cccc(C(F)(F)F)c1 [Compound 1, (E)-N-(1-(3-hydroxypropyl)-5-(2-oxotetrahydropyrimidin-1(2H)-yl)-1H-benzo[d]imidazol-2(3H)-ylidene)-3-(trifluoromethyl)benzamide]"
0.1 to 1 µM,0.1 to 1 µM,"O=C(/N=c1\[nH]c2cc(N3CCOCC3=O)ccc2n1CCCO)c1cccc(-n2cnnc2)c1 [Compound 2, (E)-N-(1-(3-hydroxypropyl)-5-(3-oxomorpholino)-1H-benzo[d]imidazol-2(3H)-ylidene)-3-(4H-1,2,4-triazol-4-yl)benzamide]"
0.1 to 1 µM,≤ 0.1 µM,"N#Cc1cccc(C(=O)/N=c2\[nH]c3cc(N4CCOCC4=O)ccc3n2CCCO)c1 [Compound 3, (E)-3-cyano-N-(1-(3-hydroxypropyl)-5-(3-oxomorpholino)-1H-benzo[d]imidazol-2(3H)-ylidene)benzamide]"
0.1 to 1 µM,≤ 0.1 µM,"O=C(/N=c1\[nH]c2cc(N3CCOCC3=O)ccc2n1CCCO)c1cccc(C(F)(F)F)c1F [Compound 4, (E)-2-fluoro-N-(1-(3-hydroxypropyl)-5-(3-oxomorpholino)-1H-benzo[d]imidazol-2(3H)-ylidene)-3-(trifluoromethyl)benzamide]"
≤ 0.1 µM,≤ 0.1 µM,"O=C(/N=c1\[nH]c2cc(N3CCOCC3=O)ccc2n1CCCO)c1ccc(F)c(C(F)(F)F)c1 [Compound 5, (E)-4-fluoro-N-(1-(3-hydroxypropyl)-5-(3-oxomorpholino)-1H-benzo[d]imidazol-2(3H)-ylidene)-3-(trifluoromethyl)benzamide]"
0.1 to 1 µM,≤ 0.1 µM,"O=C(/N=c1\[nH]c2cc(N3CCOCC3=O)ccc2n1CCCO)c1cccc(OC(F)F)c1 [Compound 6, (E)-3-(difluoromethoxy)-N-(1-(3-hydroxypropyl)-5-(3-oxomorpholino)-1H-benzo[d]imidazol-2(3H)-ylidene)benzamide]"
0.1 to 1 µM,≤ 0.1 µM,"O=C(/N=c1\[nH]c2cc(N3CCOCC3=O)ccc2n1CCCO)c1cccc(OC(F)(F)F)c1 [Compound 7, (E)-N-(1-(3-hydroxypropyl)-5-(3-oxomorpholino)-1H-benzo[d]imidazol-2(3H)-ylidene)-3-(trifluoromethoxy)benzamide]"
0.1 to 1 µM,≤ 0.1 µM,"O=C(/N=c1\[nH]c2cc(N3CCOC3=O)ccc2n1CCCO)c1cccc(C(F)(F)F)c1 [Compound 8, (E)-N-(1-(3-hydroxypropyl)-5-(2-oxooxazolidin-3-yl)-1H-benzo[d]imidazol-2(3H)-ylidene)-3-(trifluoromethyl)benzamide]"
0.1 to 1 µM,≤ 0.1 µM,"O=C(/N=c1\[nH]c2cc(N3CCOCC3=O)ccc2n1CC1(CO)CC1)c1cccc(C(F)(F)F)c1 [Compound 9, (E)-N-(1-((1-(hydroxymethyl)cyclopropyl)methyl)-5-(3-oxomorpholino)-1H-benzo[d]imidazol-2(3H)-ylidene)-3-(trifluoromethyl)benzamide]"
0.1 to 1 µM,≤ 0.1 µM,"C[C@H](CCO)n1/c(=N/C(=O)c2cccc(C#N)c2)[nH]c2cc(N3CCOCC3=O)ccc21 [Compound 10, (R,E)-3-cyano-N-(1-(4-hydroxybutan-2-yl)-5-(3-oxomorpholino)-1H-benzo[d]imidazol-2(3H)-ylidene)benzamide]"
0.1 to 1 µM,≤ 0.1 µM,"N#Cc1cccc(C(=O)/N=c2\[nH]c3cc(N4CCOC4=O)ccc3n2CCCO)c1 [Compound 11, (E)-3-cyano-N-(1-(3-hydroxypropyl)-5-(2-oxooxazolidin-3-yl)-1H-benzo[d]imidazol-2(3H)-ylidene)benzamide]"
≤ 0.1 µM,≤ 0.1 µM,"N#Cc1cccc(C(=O)/N=c2\[nH]c3cc(N4CCOCC4=O)ccc3n2CC2(CO)CC2)c1 [Compound 12, (E)-3-cyano-N-(1-((1-(hydroxymethyl)cyclopropyl)methyl)-5-(3-oxomorpholino)-1H-benzo[d]imidazol-2(3H)-ylidene)benzamide]"
≤ 0.1 µM,≤ 0.1 µM,"CS(=O)(=O)c1cccc(C(=O)/N=c2\[nH]c3cc(N4CCOCC4=O)ccc3n2CC2(CO)CC2)c1 [Compound 13, (E)-N-(1-((1-(hydroxymethyl)cyclopropyl)methyl)-5-(3-oxomorpholino)-1H-benzo[d]imidazol-2(3H)-ylidene)-3-(methylsulfonyl)benzamide]"
≤ 0.1 µM,≤ 0.1 µM,"O=C(/N=c1\[nH]c2cc(N3CCOCC3=O)ccc2n1CC1(CO)CC1)c1cccc(C(F)F)c1 [Compound 14, (E)-3-(difluoromethyl)-N-(1-((1-(hydroxymethyl)cyclopropyl)methyl)-5-(3-oxomorpholino)-1H-benzo[d]imidazol-2(3H)-ylidene)benzamide]"
